Values quoted from earlier work as cited in article PMC11728000, “Antitumor Activity and Multi-Target Mechanism of Phenolic Schiff Bases Bearing Methanesulfonamide Fragments: Cell Cycle Analysis and a Molecular Modeling Study” (International Journal of Molecular Sciences, 2024).

Key:
[1] = test system: Breast Cancer subpanel tumor cell lines; conditions: cited from earlier work; for TGI, subpanel average: ref https://dtp.cancer.gov/dtpstandard/dwindex/index.jsp
[2] = test system: NCI-H460; set-up: method as in https://dtp.cancer.gov/dtpstandard/dwindex/index.jsp; conditions: ref https://dtp.cancer.gov/dtpstandard/dwindex/index.jsp; cited from earlier work
[3] = test system: Ovarian Cancer subpanel tumor cell lines; conditions: cited from earlier work; for GI50: read-out: GI50, subpanel average, ref https://dtp.cancer.gov/dtpstandard/dwindex/index.jsp; for TGI, subpanel average: ref https://dtp.cancer.gov/dtpstandard/dwindex/index.jsp
[4] = test system: DU-145; set-up: method as in https://dtp.cancer.gov/dtpstandard/dwindex/index.jsp; conditions: ref https://dtp.cancer.gov/dtpstandard/dwindex/index.jsp; cited from earlier work
[5] = test system: CCRF-CEM; set-up: method as in https://dtp.cancer.gov/dtpstandard/dwindex/index.jsp; conditions: ref https://dtp.cancer.gov/dtpstandard/dwindex/index.jsp; cited from earlier work
[6] = test system: MALME-3M; set-up: method as in https://dtp.cancer.gov/dtpstandard/dwindex/index.jsp; conditions: ref https://dtp.cancer.gov/dtpstandard/dwindex/index.jsp; cited from earlier work
[7] = test system: ACHN; set-up: method as in https://dtp.cancer.gov/dtpstandard/dwindex/index.jsp; conditions: ref https://dtp.cancer.gov/dtpstandard/dwindex/index.jsp; cited from earlier work
[8] = test system: TK-10; set-up: method as in https://dtp.cancer.gov/dtpstandard/dwindex/index.jsp; conditions: ref https://dtp.cancer.gov/dtpstandard/dwindex/index.jsp; cited from earlier work
[9] = test system: RXF 393; set-up: method as in https://dtp.cancer.gov/dtpstandard/dwindex/index.jsp; conditions: ref https://dtp.cancer.gov/dtpstandard/dwindex/index.jsp; cited from earlier work
[10] = test system: M14; set-up: method as in https://dtp.cancer.gov/dtpstandard/dwindex/index.jsp; conditions: ref https://dtp.cancer.gov/dtpstandard/dwindex/index.jsp; cited from earlier work
[11] = test system: SF-295; set-up: method as in https://dtp.cancer.gov/dtpstandard/dwindex/index.jsp; conditions: ref https://dtp.cancer.gov/dtpstandard/dwindex/index.jsp; cited from earlier work
[12] = test system: Melanoma subpanel tumor cell lines; conditions: cited from earlier work; for GI50: read-out: GI50, subpanel average, ref https://dtp.cancer.gov/dtpstandard/dwindex/index.jsp; for TGI, subpanel average: ref https://dtp.cancer.gov/dtpstandard/dwindex/index.jsp
[13] = test system: LOX IMVI; set-up: method as in https://dtp.cancer.gov/dtpstandard/dwindex/index.jsp; conditions: ref https://dtp.cancer.gov/dtpstandard/dwindex/index.jsp; cited from earlier work
[14] = test system: NCI-H322M; set-up: method as in https://dtp.cancer.gov/dtpstandard/dwindex/index.jsp; conditions: ref https://dtp.cancer.gov/dtpstandard/dwindex/index.jsp; cited from earlier work
[15] = test system: SNB-19; set-up: method as in https://dtp.cancer.gov/dtpstandard/dwindex/index.jsp; conditions: ref https://dtp.cancer.gov/dtpstandard/dwindex/index.jsp; cited from earlier work
[16] = test system: SK-MEL-2; set-up: method as in https://dtp.cancer.gov/dtpstandard/dwindex/index.jsp; conditions: ref https://dtp.cancer.gov/dtpstandard/dwindex/index.jsp; cited from earlier work
[17] = test system: HOP-62; set-up: method as in https://dtp.cancer.gov/dtpstandard/dwindex/index.jsp; conditions: ref https://dtp.cancer.gov/dtpstandard/dwindex/index.jsp; cited from earlier work
[18] = test system: SR; set-up: method as in https://dtp.cancer.gov/dtpstandard/dwindex/index.jsp; conditions: ref https://dtp.cancer.gov/dtpstandard/dwindex/index.jsp; cited from earlier work
[19] = test system: 59 human cancer cell lines; conditions: full panel mean-graph midpoint, ref https://dtp.cancer.gov/dtpstandard/dwindex/index.jsp, cited from earlier work; for GI50: read-out: GI50 MG-MID
[20] = test system: MDA-MB-468; set-up: method as in https://dtp.cancer.gov/dtpstandard/dwindex/index.jsp; conditions: ref https://dtp.cancer.gov/dtpstandard/dwindex/index.jsp; cited from earlier work
[21] = test system: K-562; set-up: method as in https://dtp.cancer.gov/dtpstandard/dwindex/index.jsp; conditions: ref https://dtp.cancer.gov/dtpstandard/dwindex/index.jsp; cited from earlier work
[22] = test system: SK-OV-3; set-up: method as in https://dtp.cancer.gov/dtpstandard/dwindex/index.jsp; conditions: ref https://dtp.cancer.gov/dtpstandard/dwindex/index.jsp; cited from earlier work
[23] = test system: MDA-MB-435; set-up: method as in https://dtp.cancer.gov/dtpstandard/dwindex/index.jsp; conditions: ref https://dtp.cancer.gov/dtpstandard/dwindex/index.jsp; cited from earlier work
[24] = test system: HS 578T; set-up: method as in https://dtp.cancer.gov/dtpstandard/dwindex/index.jsp; conditions: ref https://dtp.cancer.gov/dtpstandard/dwindex/index.jsp; cited from earlier work
[25] = test system: SK-MEL-28; set-up: method as in https://dtp.cancer.gov/dtpstandard/dwindex/index.jsp; conditions: ref https://dtp.cancer.gov/dtpstandard/dwindex/index.jsp; cited from earlier work
[26] = test system: SF-539; set-up: method as in https://dtp.cancer.gov/dtpstandard/dwindex/index.jsp; conditions: ref https://dtp.cancer.gov/dtpstandard/dwindex/index.jsp; cited from earlier work
[27] = test system: UO-31; set-up: method as in https://dtp.cancer.gov/dtpstandard/dwindex/index.jsp; conditions: ref https://dtp.cancer.gov/dtpstandard/dwindex/index.jsp; cited from earlier work
[28] = test system: A549/ATCC; set-up: method as in https://dtp.cancer.gov/dtpstandard/dwindex/index.jsp; conditions: ref https://dtp.cancer.gov/dtpstandard/dwindex/index.jsp; cited from earlier work
[29] = test system: CNS Cancer subpanel tumor cell lines; conditions: cited from earlier work; for GI50: read-out: GI50, subpanel average, ref https://dtp.cancer.gov/dtpstandard/dwindex/index.jsp; for TGI, subpanel average: ref https://dtp.cancer.gov/dtpstandard/dwindex/index.jsp
[30] = test system: NCI/ADR-RES; set-up: method as in https://dtp.cancer.gov/dtpstandard/dwindex/index.jsp; conditions: ref https://dtp.cancer.gov/dtpstandard/dwindex/index.jsp; cited from earlier work
[31] = test system: Renal Cancer subpanel tumor cell lines; conditions: cited from earlier work; for GI50: read-out: GI50, subpanel average, ref https://dtp.cancer.gov/dtpstandard/dwindex/index.jsp; for TGI, subpanel average: ref https://dtp.cancer.gov/dtpstandard/dwindex/index.jsp
[32] = test system: MOLT-4; set-up: method as in https://dtp.cancer.gov/dtpstandard/dwindex/index.jsp; conditions: ref https://dtp.cancer.gov/dtpstandard/dwindex/index.jsp; cited from earlier work
[33] = test system: PC-3; set-up: method as in https://dtp.cancer.gov/dtpstandard/dwindex/index.jsp; conditions: ref https://dtp.cancer.gov/dtpstandard/dwindex/index.jsp; cited from earlier work
[34] = test system: OVCAR-4; set-up: method as in https://dtp.cancer.gov/dtpstandard/dwindex/index.jsp; conditions: ref https://dtp.cancer.gov/dtpstandard/dwindex/index.jsp; cited from earlier work
[35] = test system: A498; set-up: method as in https://dtp.cancer.gov/dtpstandard/dwindex/index.jsp; conditions: ref https://dtp.cancer.gov/dtpstandard/dwindex/index.jsp; cited from earlier work
[36] = test system: SNB-75; set-up: method as in https://dtp.cancer.gov/dtpstandard/dwindex/index.jsp; conditions: ref https://dtp.cancer.gov/dtpstandard/dwindex/index.jsp; cited from earlier work
[37] = test system: SW-620; set-up: method as in https://dtp.cancer.gov/dtpstandard/dwindex/index.jsp; conditions: ref https://dtp.cancer.gov/dtpstandard/dwindex/index.jsp; cited from earlier work
[38] = test system: MCF-7; set-up: method as in https://dtp.cancer.gov/dtpstandard/dwindex/index.jsp; conditions: ref https://dtp.cancer.gov/dtpstandard/dwindex/index.jsp; cited from earlier work
[39] = read-out: LC50, subpanel average, ref https://dtp.cancer.gov/dtpstandard/dwindex/index.jsp

COc1cc2ncnc(Nc3ccc(F)c(Cl)c3)c2cc1OCCCN1CCOCC1 [Gefitinib, gefitinib]
GI50 ([1]; read-out: GI50, subpanel average, ref https://dtp.cancer.gov/dtpstandard/dwindex/index.jsp): 4670 nM | TGI, subpanel average [1]: 18620 nM | GI50 [2]: 3160 nM | GI50 [3]: 3050 nM | TGI, subpanel average [3]: 33290 nM | GI50 [4]: 1580 nM | GI50 [5]: 398 nM | GI50 [6]: 3980 nM | GI50 [7]: 158 nM | GI50 [8]: 794 nM | GI50 [9]: 3160 nM | GI50 [10]: 2000 nM | GI50 [11]: 10000 nM | GI50 [12]: 3680 nM | TGI, subpanel average [12]: 12490 nM | GI50 [13]: 3160 nM | GI50 [14]: 63 nM | GI50 [15]: 3160 nM | GI50 [16]: 10000 nM | GI50 [17]: 3160 nM | GI50 [18]: 3160 nM | TGI MG-MID [19]: 14300 nM | GI50 [19]: 2100 nM | GI50 [20]: 12.6 nM | GI50 [21]: 2510 nM | GI50 [22]: 1000 nM | GI50 [23]: 3160 nM | GI50 [24]: 7940 nM | GI50 [25]: 3160 nM | GI50 [26]: 10000 nM | GI50 [27]: 1580 nM | GI50 [28]: 2510 nM | GI50 [29]: 5640 nM | TGI, subpanel average [29]: 19620 nM | GI50 [30]: 1260 nM | GI50 [31]: 1410 nM | TGI, subpanel average [31]: 12500 nM | GI50 [32]: 2000 nM

CNC(=O)c1cc(Oc2ccc(NC(=O)Nc3ccc(Cl)c(C(F)(F)F)c3)cc2)ccn1 [Sorafenib, sorafenib]
CC50 [1, 39]: 57300 nM | TGI, subpanel average [1]: 9350 nM | GI50 [2]: 2510 nM | GI50 [33]: 1990 nM | GI50 [3]: 2890 nM | CC50 [3, 39]: 71300 nM | TGI, subpanel average [3]: 14430 nM | GI50 [4]: 3160 nM | GI50 [34]: 3160 nM | GI50 [5]: 1990 nM | GI50 [6]: 1990 nM | GI50 [7]: 2510 nM | GI50 [35]: 2510 nM | GI50 [8]: 3980 nM | GI50 [36]: 3160 nM | GI50 [9]: 2510 nM | GI50 [10]: 1990 nM | GI50 [12]: 1870 nM | CC50 [12, 39]: 28600 nM | TGI, subpanel average [12]: 6290 nM | GI50 [14]: 2510 nM | GI50 [15]: 3160 nM | GI50 [16]: 1990 nM | GI50 [17]: 1990 nM | GI50 [18]: 3160 nM | TGI MG-MID [19]: 9110 nM | GI50 [19]: 2330 nM | CC50 ([19]; read-out: LC50 MG-MID): 43100 nM | GI50 [20]: 1990 nM | GI50 [37]: 2510 nM | GI50 [21]: 3160 nM | GI50 [22]: 2510 nM | GI50 [25]: 2510 nM | GI50 [38]: 2510 nM | GI50 [27]: 2510 nM | GI50 [28]: 3160 nM | GI50 [29]: 2330 nM | CC50 [29, 39]: 27800 nM | TGI, subpanel average [29]: 7640 nM | GI50 [30]: 2510 nM | GI50 [31]: 2860 nM | CC50 [31, 39]: 54800 nM | TGI, subpanel average [31]: 10860 nM | GI50 [32]: 3160 nM
